This is an account of results in patent US20110009453A1, “S1P3 RECEPTOR INHIBITORS FOR TREATING INFLAMMATION” (priority 2008, published 2011).

Read-outs that look alike come from different tables or passages of the source.

Experiment [1] has as its target T1, human S1P3 receptor (Homo sapiens, UniProt Q99500).
T1 construct: expressed in transfected cells
The experiment can be described thus: FLIPR assay in T24 cells stably expressing the human S1P3 receptor. It is filed as cell-based. Conditions: for inhibition at 10 µM: T-24, read-out: S1P3 percent inhibition (in parenthesis). The procedure:
Another method of determining if a compound is an S1P3 receptor inhibitor is with a FLIPR assay. An example of this method is described in U.S. patent application Ser. No. 11/675,168, the contents of which are incorporated herein by reference. According to that application, compounds may be assessed for their ability to activate or block activation of the human S1P3 receptor in T24 cells stably expressing the human S1P3 receptor. In this assay ten thousand cells/well are plated into 384-well poly-D-lysine coated plates one day prior to use. The growth media for the S1P3 receptor expressing cell line is McCoy's 5A medium supplemented with 10% charcoal-treated fetal bovine serum (FBS), 1% antibiotic-antimycotic and 400 μg/ml geneticin. On the day of the experiment, the cells are washed twice with Hank's Balanced Salt Solution supplemented with 20 mM HEPES (HBSS/Hepes buffer). The cells are then dye loaded with 2 uM Fluo-4 diluted in the HBSS/Hepes buffer with 1.25 mM Probenecid and incubated at 37° C. for 40 minutes. Extracellular dye is removed by washing the cell plates four times prior to placing the plates in the FLIPR (Fluorometric Imaging Plate Reader, Molecular Devices). Ligands are diluted in HBSS/Hepes buffer and prepared in 384-well microplates. The positive control, S1P, is diluted in HBSS/Hepes buffer with 4 mg/ml fatty acid free bovine serum albumin. The FLIPR transfers 12.5 μl from the ligand microplate to the cell plate and takes fluorescent measurements for 75 seconds, taking readings every second, and then for 2.5 minutes, taking readings every 10 seconds. Drugs are tested over the concentration range of to 0.61 nM to 10,000 nM. Data for Ca^+2 responses is obtained in arbitrary fluorescence units and not translated into Ca^+2 concentrations. IC50 values are determined through a […] analysis using the Levenburg Marquardt algorithm.
Examples of such compounds include the following. […] The EC50 and IC50 values expressed in the following table were obtained in the FLIPR assay described above. EC50 or IC50 values are stated first, followed by percent efficacy or percent inhibition stated in parenthesis. In this table and the next, percent efficacy is defined as percent of receptor activity induced by a test compound at the highest dose tested (10 μM) relative to the receptor activity induced by 5 nM sphingosine-1-phosphate, and percent inhibition is defined as percent of receptor activity induced by 5 nM sphingosine-1-phosphate that is inhibited by a test compound at the highest dose tested (10 μM). “NA” means that no activity was detected at highest dose tested; “ND” means not determined.
The IC50 values expressed below were obtained in the FLIPR assay described above. IC50 values are stated first (except as otherwise noted), followed by percent efficacy or percent inhibition in parenthesis.

The target in experiment [2] is S1P1 receptor (Homo sapiens, UniProt P21453). The experiment can be described thus: FLIPR assay (Ca2+ response), S1P1 receptor. It is filed as cell-based.
The mark [3] stands for this setting: FLIPR, table of additional selective S1P3 inhibitors, read-out: S1P3 (IC50).
[4] abbreviates: percent of activity induced by 5 nM sphingosine-1-phosphate inhibited at 10 μM, table of additional selective S1P3 inhibitors.
The mark [5] stands for this setting: FLIPR, values given in μM, read-out: S1P3 (IC50).
Setting [6] is: percent of activity induced by 5 nM sphingosine-1-phosphate inhibited at highest dose tested (10 μM).
[7] abbreviates: FLIPR, values in nM, read-out: S1P3 (IC50).
[8] abbreviates: tested 0.61 nM to 10,000 nM, NA = no activity detected at highest dose tested, read-out: S1P1 (EC50).

Sequence of S1P1 receptor (P21453 whole entry): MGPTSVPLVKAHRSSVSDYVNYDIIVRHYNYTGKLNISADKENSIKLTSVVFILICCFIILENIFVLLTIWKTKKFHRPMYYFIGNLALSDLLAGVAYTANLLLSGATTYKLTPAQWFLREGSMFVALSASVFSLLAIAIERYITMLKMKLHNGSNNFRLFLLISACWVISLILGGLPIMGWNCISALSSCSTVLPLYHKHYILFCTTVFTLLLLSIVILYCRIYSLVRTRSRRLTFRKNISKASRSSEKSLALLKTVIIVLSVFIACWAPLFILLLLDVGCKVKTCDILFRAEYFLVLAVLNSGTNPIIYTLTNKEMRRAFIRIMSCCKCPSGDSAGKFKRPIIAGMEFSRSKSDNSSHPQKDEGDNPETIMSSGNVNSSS
T1 sequence (Q99500 whole entry): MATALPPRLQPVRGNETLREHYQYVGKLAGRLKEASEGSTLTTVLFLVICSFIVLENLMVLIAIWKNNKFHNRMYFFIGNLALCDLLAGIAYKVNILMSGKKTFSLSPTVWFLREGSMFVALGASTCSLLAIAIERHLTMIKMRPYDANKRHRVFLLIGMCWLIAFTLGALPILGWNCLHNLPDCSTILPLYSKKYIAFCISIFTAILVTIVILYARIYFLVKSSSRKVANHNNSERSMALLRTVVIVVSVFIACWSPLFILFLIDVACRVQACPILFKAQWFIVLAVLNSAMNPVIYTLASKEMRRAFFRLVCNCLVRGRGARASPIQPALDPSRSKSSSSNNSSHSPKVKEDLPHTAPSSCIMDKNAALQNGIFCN

For the molecule `O=C(NCc1ccc(F)c(F)c1)c1c(C2CCCC2)n(Cc2ccccn2)c2ccc(O)cc12`, the half-maximal inhibitory concentration (IC50) in experiment [1] (setting [3]) turned out to be 0.017 µM. Also, the inhibition at 10 µM in experiment [1] (setting [4]) turned out to be 99%.

Take `CCc1ccc(-c2ccc(COCCCP(=O)(O)O)nc2-c2ccccc2)cc1` [Compound 155]: the IC50 in experiment [1] (setting [5]) was 4 µM. Moreover, the inhibition at 10 µM in experiment [1] (setting [6]) was found to be 27%.

`CC(C)Oc1ccc2c(C(=O)NCc3ccc(F)c(F)c3)c(C(C)C)n(Cc3ccccc3)c2c1` displayed an IC50 in experiment [1] of 0.006 µM. Besides, the inhibition at 10 µM in experiment [1] (setting [4]) is 100%.

As to `CCc1ccc(-c2ccc(CNCCCP(=O)(O)O)nc2-c2ccccc2)cc1` [drawing 165], the IC50 in experiment [1] (setting [3]) was found to be 0.319 µM. In addition, in experiment [1] (setting [4]), the “S1P3 percent inhibition (in parenthesis)” value was determined as 98%. The 50% effective concentration (EC50) in experiment [2] (table of additional selective S1P3 inhibitors, read-out: S1P1 EC50 (noted in IC50 column)) was found to be 170 nM.

On to `CCc1ccc(-c2ccc(CNCCP(=O)(O)O)nc2-c2ccccc2)cc1` [Compound 149], for which the IC50 in experiment [1] (setting [5]) was found to be 1.8 µM. Moreover, in experiment [1] (setting [6]), the inhibition at 10 µM was found to be 99%.

For the molecule `CCCOc1ccc2c(C(=O)NCc3ccc(F)c(F)c3)c(C(C)C)n(Cc3ccccc3)c2c1`, the midpoint of inhibition in experiment [1], the IC50, lay at 0.005 µM. Further, in experiment [1] (setting [4]), the inhibition at 10 µM was 100%.

Take `CC(C)c1c(C(=O)NCc2ccc(F)c(F)c2)c2ccccc2n1Cc1ccccc1`: the midpoint of inhibition in experiment [1], the IC50, lay at 0.209 µM. The inhibition at 10 µM in experiment [1] (setting [4]) came out at 100%.

In the case of `CCCc1ccc(-c2ccc(CNCCCP(=O)(O)O)nc2-c2ccccc2)cc1` [Compound 154], the IC50 in experiment [1] (setting [7]) amounted to 0.319 µM. The inhibition at 10 µM in experiment [1] (setting [6]) was determined as 98%. Further, the EC50 in experiment [2] (setting [8]) is 114 nM.

On to `Cc1ccc(-c2ccc(CNCCCP(=O)(O)O)nc2-c2ccccc2)cc1` [Compound 147], for which, in experiment [1] (setting [7]), the 50% inhibitory concentration (IC50) was found to be 0.231 µM. Moreover, the inhibition at 10 µM in experiment [1] (setting [6]) came to 98%. Also, the EC50 in experiment [2] (setting [8]) amounted to 121 nM.

For `O=P(O)(O)CCCNCc1ccc(-c2ccccc2)c(-c2ccccc2)n1` [Compound 146], the IC50 in experiment [1] (setting [5]) was found to be 1.6 µM. In addition, the inhibition at 10 µM in experiment [1] (setting [6]) amounted to 83%.

For the molecule `CCc1ccc(-c2ccc(CNCCCP(=O)(O)O)nc2-c2ccncc2)cc1` [Compound 151], the half-inhibitory concentration (IC50) in experiment [1] (setting [5]) was 1.1 µM. The inhibition at 10 µM in experiment [1] (setting [6]) is 95%.

As for `CCOc1ccc2c(C(=O)NCc3ccc(F)c(F)c3)c(C(C)C)n(Cc3ccccc3)c2c1`, the IC50 in experiment [1] worked out at 0.019 µM. Moreover, the inhibition at 10 µM in experiment [1] (setting [4]) was determined as 100%.

As for `CCc1ccc(-c2ccc(CNCCCCP(=O)(O)O)nc2-c2ccccc2)cc1` [Compound 153], the inhibition at 10 µM in experiment [1] (setting [6]) came to 30%.

With `O=P(O)(O)CCCNCc1ccc(-c2ccc(C(F)(F)F)cc2)c(-c2ccccc2)n1` [Compound 150], the inhibition at 10 µM in experiment [1] (setting [6]) worked out at 95%.

Regarding `CCc1ccc(-c2ccc(CNCCP(=O)(O)O)nc2-c2ccncc2)cc1` [Compound 152], in experiment [1] (setting [5]), the half-maximal inhibitory concentration (IC50) is 1.8 µM. In experiment [1] (setting [6]), the inhibition at 10 µM was 68%.

Turning to `CC(C)c1c(C(=O)NCc2ccc(F)c(F)c2)c2cc(O)ccc2n1Cc1ccccc1`, 0.035 µM corresponded to half-maximal inhibition in experiment [1] (IC50). The inhibition at 10 µM in experiment [1] (setting [4]) was found to be 98%.

As for `CCc1ccc(-c2ccc(CNCCCP(=O)(O)O)nc2-c2ccccc2)cc1` [Compound 148], the concentration for half-maximal inhibition (IC50) in experiment [1] (setting [7]) stood at 0.319 µM. Further, the inhibition at 10 µM in experiment [1] (setting [6]) is 98%. In addition, the EC50 in experiment [2] (setting [8]) was 170 nM.

Take `Cc1ccc(-c2ccc(COCCCP(=O)(O)O)nc2-c2ccccc2)cc1` [Compound 156]: the IC50 in experiment [1] (setting [5]) was 1.9 µM. For the same molecule, the inhibition at 10 µM in experiment [1] (setting [6]) was 11%.

Take `O=C(NCc1ccc(F)c(F)c1)c1c(C2CCCC2)n(Cc2ccccc2)c2ccc(O)cc12`: the IC50 in experiment [1] (setting [3]) was 0.031 µM. Further, the inhibition at 10 µM in experiment [1] (setting [4]) was 100%.
